# Experiment: Ring-closing metathesis (C=C formation) of fluorous-tagged (FDIPES) terminal dienes with Hoveyda-Grubbs 2nd generation catalyst (typically 2 mol%, 1-5 mol%), usually with 1,4-benzoquinone (4-10 mol%); quench P(CH2OH)3/Et3N/silica
# Settings: MTBE, 2.0 mM, 55.0 °C
smiles,measurement,setting,value
COc1ccc([C@H]2COCC=CC[C@H](CO[Si](CCC(F)(F)C(F)(F)C(F)(F)C(F)(F)C(F)(F)C(F)(F)C(F)(F)C(F)(F)F)(C(C)C)C(C)C)N(S(=O)(=O)c3ccccc3[N+](=O)[O-])Cc3cccc(c3)CN(S(=O)(=O)c3ccccc3[N+](=O)[O-])C(=O)OC2)c(OC)c1 [27 (14+9; E/Z 60:40)],"ring closure, isolated yield","from C=CCOC[C@@H](COC(=O)N(Cc1cccc(CN([C@H](CC=C)CO[Si](CCC(F)(F)C(F)(F)C(F)(F)C(F)(F)C(F)(F)C(F)(F)C(F)(F)C(F)(F)F)(C(C)C)C(C)C)S(=O)(=O)c2ccccc2[N+](=O)[O-])c1)S(=O)(=O)c1ccccc1[N+](=O)[O-])c1ccc(OC)cc1OC, 18-membered ring, 24.0 h",56%
CC(C)[Si](CCC(F)(F)C(F)(F)C(F)(F)C(F)(F)C(F)(F)C(F)(F)C(F)(F)C(F)(F)F)(OC[C@H]1CC=CCOc2ccccc2COC(=O)N(S(=O)(=O)c2ccccc2[N+](=O)[O-])Cc2ccccc2CN1S(=O)(=O)c1ccccc1[N+](=O)[O-])C(C)C [25 (13+10; E/Z 65:35)],"ring closure, isolated yield","from C=CCOc1ccccc1COC(=O)N(Cc1ccccc1CN([C@H](CC=C)CO[Si](CCC(F)(F)C(F)(F)C(F)(F)C(F)(F)C(F)(F)C(F)(F)C(F)(F)C(F)(F)F)(C(C)C)C(C)C)S(=O)(=O)c1ccccc1[N+](=O)[O-])S(=O)(=O)c1ccccc1[N+](=O)[O-], 17-membered ring, 24.0 h",56%
CC(C)[Si](CCC(F)(F)C(F)(F)C(F)(F)C(F)(F)C(F)(F)C(F)(F)C(F)(F)C(F)(F)F)(OC[C@H]1COCC=CCC[C@@H](O[Si](C)(C)C(C)(C)C)[C@H](C)C(=O)N(S(=O)(=O)c2ccccc2[N+](=O)[O-])Cc2cccc(c2)CN1S(=O)(=O)c1ccccc1[N+](=O)[O-])C(C)C [19 (from 18; Z 50% + E 40%)],"ring closure, isolated yield","from C=CCC[C@@H](O[Si](C)(C)C(C)(C)C)[C@H](C)C(=O)N(Cc1cccc(CN([C@H](COCC=C)CO[Si](CCC(F)(F)C(F)(F)C(F)(F)C(F)(F)C(F)(F)C(F)(F)C(F)(F)C(F)(F)F)(C(C)C)C(C)C)S(=O)(=O)c2ccccc2[N+](=O)[O-])c1)S(=O)(=O)c1ccccc1[N+](=O)[O-], 18-membered ring, 48.0 h",90%
COc1ccc([C@H]2COCC=CCOC[C@@H](CO[Si](CCC(F)(F)C(F)(F)C(F)(F)C(F)(F)C(F)(F)C(F)(F)C(F)(F)C(F)(F)F)(C(C)C)C(C)C)N(S(=O)(=O)c3ccccc3[N+](=O)[O-])Cc3ccccc3CN(S(=O)(=O)c3ccccc3[N+](=O)[O-])C(=O)OC2)c(OC)c1 [32 (16+9; E/Z >98:<2)],"ring closure, isolated yield","from C=CCOC[C@@H](COC(=O)N(Cc1ccccc1CN([C@@H](COCC=C)CO[Si](CCC(F)(F)C(F)(F)C(F)(F)C(F)(F)C(F)(F)C(F)(F)C(F)(F)C(F)(F)F)(C(C)C)C(C)C)S(=O)(=O)c1ccccc1[N+](=O)[O-])S(=O)(=O)c1ccccc1[N+](=O)[O-])c1ccc(OC)cc1OC, 19-membered ring, 36.0 h",88%
CC(C)[Si](CCC(F)(F)C(F)(F)C(F)(F)C(F)(F)C(F)(F)C(F)(F)C(F)(F)C(F)(F)F)(OC[C@H]1CC=CCOc2ccccc2COC(=O)N(S(=O)(=O)c2ccccc2[N+](=O)[O-])Cc2cccc(c2)CN1S(=O)(=O)c1ccccc1[N+](=O)[O-])C(C)C (mixture of isomers) [28 (14+10; unchromatographed E/Z mixture)],"ring closure, isolated yield","from C=CCOc1ccccc1COC(=O)N(Cc1cccc(CN([C@H](CC=C)CO[Si](CCC(F)(F)C(F)(F)C(F)(F)C(F)(F)C(F)(F)C(F)(F)C(F)(F)C(F)(F)F)(C(C)C)C(C)C)S(=O)(=O)c2ccccc2[N+](=O)[O-])c1)S(=O)(=O)c1ccccc1[N+](=O)[O-], 18-membered ring, 24.0 h",88%
